# Structures can show the parent of a compound that is named as a salt.
# How the values were obtained:
# [1] = system: subjects undergoing bunionectomy (postsurgical pain, operative foot); experiment: NRS pain intensity scores after sciatic (popliteal fossa) nerve block, Phase 3 clinical trial #1; format: in vivo, human
# Description: Clinical Study #1 was a Phase 3, multicenter, randomized, double-blind, active-controlled study in 180 subjects undergoing bunionectomy. Subjects received a sciatic (in the popliteal fossa) nerve block with a single dose of either […] 266 mg ([…] 133 mg (EXP133), or 0.25% bupivacaine HCl (50 mg; BUP50). The study was conducted in two parts (Part A and Part B). Part A was to be completed and analyzed before enrollment in Part B was initiated. Part A was a 3-arm cohort with 66 subjects undergoing bunionectomy to obtain information on pharmacokinetics (PK), pharmacodynamics (PD), efficacy, and safety. Subjects were randomized (1:1:1) to the EXP266, EXP133, and BUP50 treatment arms. Part B was a 2-arm cohort with 119 subjects undergoing bunionectomy to evaluate the efficacy and safety of […] compared with bupivacaine HCl. The dose of the […] arm in Part B was determined based on the interim analysis of the Part A cohort results. […] An unscheduled pain intensity assessment using the NRS (measured as “On a scale from 0 to 10, where 0 equals no pain and 10 equals the worst possible pain, how much pain are you experiencing in your operative foot right now?”) was to be completed immediately prior to administration of any breakthrough pain medication up to 96 h post-surgery. Medications were administered PRN; opioids were not to be given on a pre-determined schedule. […] All postsurgical analgesics administered, were to be recorded through hospital discharge. […]
# [2] = system: sciatic nerve (sensory block) in subjects undergoing bunionectomy; experiment: Pharmacodynamics: onset and duration of sensory block, clinical trial #1 Part A; format: in vivo, human
# Description: Clinical Study #1 was a Phase 3, multicenter, randomized, double-blind, active-controlled study in 180 subjects undergoing bunionectomy. Subjects received a sciatic (in the popliteal fossa) nerve block with a single dose of either EXPAREL 266 mg (EXP266), EXPAREL 133 mg (EXP133), or 0.25% bupivacaine HCl (50 mg; BUP50). The study was conducted in two parts (Part A and Part B). Part A was to be completed and analyzed before enrollment in Part B was initiated. Part A was a 3-arm cohort with 66 subjects undergoing bunionectomy to obtain information on pharmacokinetics (PK), pharmacodynamics (PD), efficacy, and safety. Subjects were randomized (1:1:1) to the EXP266, EXP133, and BUP50 treatment arms. Part B was a 2-arm cohort with 119 subjects undergoing bunionectomy to evaluate the efficacy and safety of EXPAREL compared with bupivacaine HCl. The dose of the EXPAREL arm in Part B was determined based on the interim analysis of the Part A cohort results.
# On the day of surgery, subjects received an ultrasound-guided sciatic (in the popliteal fossa) nerve block with one of the following treatments: • EXP266 arm: subjects randomized to this treatment arm received 20 mL (266 mg) EXPAREL mixed with 10 mL saline (Part A only; per interim analysis was not selected for Part B) • EXP133 arm: subjects randomized to this treatment arm received 10 mL (133 mg) EXPAREL mixed with 20 mL saline (Part A and B) • BUP50 arm: subjects randomized to this treatment arm received 20 mL (50 mg) 0.25% bupivacaine HCl mixed with 10 mL saline (Part A and B)
# Efficacy assessments included pain intensity scores focused on the operative foot using the Numeric Rating Scale (NRS), total postsurgical opioid consumption in OMED, time to first opioid consumption post-surgery, and percentage of opioid-free patients through 96 hours, and worst and average NRS pain intensity scores at 24 h, 48 h, 72 h, and 96 h from end of surgery. Additionally, blood samples for pharmacokinetic (PK) analysis (area under the curve [AUC], maximum plasma concentration [Cmax], time of maximum plasma concentration [Tmax], including early and late Cmax and Tmax (EXP133-ADMIX arm only), apparent terminal elimination half-life [t1/2el], apparent clearance [CL/F], and apparent volume of distribution [Vd/F]). Pharmacodynamic (PD) assessment data, including median time to onset of sensory block and motor block, and median duration of sensory and motor block were collected.
# Pharmacodynamic endpoints included: onset of sensory block, offset of sensory block, duration of sensory block, onset of motor block, offset of motor block, and duration of motor block.
# [3] = EXP266 Part A, EXP133 and BUP50 Part A+B
structure (smiles),measurement,setting,value
"CCCCN1CCCCC1C(=O)Nc1c(C)cccc1C (stereo not drawn) [BUP50, bupivacaine HCl]",mean AUC of average pain over the last 24 h post-surgery from POD1 through POD4,[1]; [3],16.1
same,mean AUC of worst pain over the last 24 h post-surgery from POD1 through POD4,[1]; [3],25.2
same,time post-surgery at which mean current pain intensity peaked,[1]; post-surgery,36 h
same,subjects without sensation at the first time point with ≥50%,"[2]; 30 min post-dose for BUP50, 2 h for EXP266 and EXP133",59.1%
same,subjects who still did not have complete sensation,[2]; 60 h post-dose,all BUP50 subjects had regained sensation
same,median duration of sensory block,"[2]; human, in vivo",29.10 h
same,median time to sensory block,"[2]; human, in vivo",0.46 h
same,subjects with sensory block onset observed,"[2]; human, in vivo",63.6%
same,first time point at which sensation was not present in ≥50% of subjects,[2]; post-dose,30 min
